The values below come from patent US20260035339A1, “TETRAHYDRONAPHTHALENE DERIVATIVE” (ATRANSEN PHARMA LTD., priority 2022, published 2026).

The target of assay [1] is T1, human LAT1 (Homo sapiens, UniProt Q01650). As to the kind of experiment: [14C]L-leucine uptake inhibition test using human-LAT1 stably expressing HEK293 cell line. Type of assay: cell-based. Further details: having full-length cDNA of human LAT1 or LAT2 inserted under a promoter of CMV; expressed in transfected cells; key to Assay Data: degree of [14C]L-leucine uptake inhibition compared with BCH: a test compound having a higher inhibitory effect than BCH is denoted by A; a test compound having the same inhibitory effect as BCH is denoted by B; a test compound having a lower inhibitory effect than BCH is denoted by C. The settings on record: for Assay Data: degree of [14C]L-leucine uptake inhibition compared with BCH: compound (racemic form) and BCH at 0.1, 1.0, 10 μM, 1 μM [14C]L-leucine, 1 minute, Na+-free HBSS; for LAT1 inhibitory effect, compounds singled out (in words): same test as Table 1. From the text:
HEK293 cells stably expressing human LAT1 and LAT2 were produced, respectively.
A shuttle vector DNA (LAT1: pcDNA3.1(+) -hLAT1, LAT2: pcDNA3.1(+) -hLAT2; expression vector pcDNA3.1 (+) was produced by Invitrogen Corp.) having ampicillin and neomycin resistance markers and having full-length cDNA of human LAT1 or LAT2 inserted under a promoter of CMV (cytomegalovirus) was constructed. This vector was transfected into the HEK293 cells by a method using Lipofectamine (registered trademark) 2000 (Invitrogen Corp.) according to the manufacturer's instructions. Thereafter, stably expressing cell clones of transgene were selected by a limiting dilution method in the presence of 0.9 mg/mL of Geneticin (registered trademark), and among the obtained cell clones, cell clones having a high uptake of [^14C]L-leucine and maintaining stable expression even after 10 passages were obtained. These cells were used for evaluating affinity and selectivity for LAT1 and LAT2.
1-1. It has been confirmed that LAT1 is responsible for L-leucine uptake in the absence of sodium ions in the human-LAT1 stably expressing HEK293 cell line. The human-LAT1 stably expressing HEK293 cell line was seeded in a 24-well plate at 1×10^5 Cell/Well, and the [^14C]L-leucine uptake inhibition test using the compound was performed after 48 hours. After the medium was removed and the cells were washed with Hank's balanced salt solution (Na^+-free HBSS) not containing sodium ions, the cells were cultured in Na^+-free HBSS for 10 minutes. Thereafter, 1 μM of [^14C]L-leucine was taken up in Na^+-free HBSS in the presence of a test compound (0.1, 1.0, 10, 0 μM in each case), which is a racemic form, for 1 minute, and then the cells were washed three times with ice-cooled Na^+-free HBSS. To the well, 500 μL of 1 M NaOH was added, and after 30 minutes, the cells were lysed, and the cell lysate was collected. The amount of [^14C]L-leucine in the cell lysate was determined using a liquid scintillator. The amount of protein in the cell lysate was measured using BCA Assay Kit (Thermofisher Scientific), and the uptake amount of [^14C]L-leucine per 1 mg of protein in the cell per minute was calculated.
The degree of LAT1 inhibition of the compound obtained in the present invention was compared with BCH (BCH, 2-aminobicyclo-(2,2,1)-heptane-2-carboxylic acid), which is an existing LAT1 inhibitor. In the [^14C]L-leucine uptake inhibition test described above, the degrees of inhibition of [^14C]L-leucine uptake inhibition using the compound (racemic form) obtained in Examples and BCH (0.1, 1.0, 10, 0 μM for both) were compared. […] In the table, a test compound having a higher inhibitory effect than BCH is denoted by A, a test compound having the same inhibitory effect as BCH is denoted by B, and a test compound having a lower inhibitory effect than BCH is denoted by C.

Assay [2] addresses T1, human LAT1. Kind of assay: Leucine uptake persistence inhibitory effect after compound removal in human-LAT1 highly expressing cell line. Type of assay: cell-based. The settings on record: 20 μM compound for 30 minutes, removed, uptake measured 30 minutes later. How it is done: The uptake of [^14C]L-leucine remaining after the compound of the present invention was caused to act in advance and removed in the human-LAT1 highly expressing cell line was examined. In the same manner as in the uptake inhibition test, the cell line was seeded in a 24-well plate, and an MEM (Minimum Essential Medium) medium containing 20 μM of the compound (racemic form) was added to the wells and allowed to act for 30 minutes. An MEM medium containing no compound was used as a control. After the compound was caused to act, the cells were washed 3 times with the MEM medium and cultured in the MEM medium for an additional 30 minutes. Thereafter, washing was performed 3 times with Na^+Free-HBSS, and 1 μM of [^14C]L-leucine dissolved in Na^+Free-HBSS was taken up for 1 minute. The cells were washed 3 times with ice-cooled Na^+Free-HBSS, and the amount of [^14C]L-leucine taken up in the cells was determined with a liquid scintillator. In the same manner as in other tests, the amount of protein in the cell fluid was measured, and the uptake amount of [^14C]L-leucine per 1 mg of protein in the cell fluid per minute was determined.

For assay [3], the system named is Mouse colorectal cancer-derived CT26 cells. Kind of assay: Cell proliferation inhibitory effect using mouse colorectal cancer cells (CCK-8 assay). Type of assay: cell-based. The settings on record: 72 hours compound treatment, read-out: Evaluation of IC50 (proliferation inhibition rate of 50%). The procedure:
Mouse colorectal cancer-derived CT26 cells were adjusted to […], seeded in a 96-well plate at 1000 cells/well, and cultured in a 10% fetal bovine serum-added RPMI 1640 medium at 5% CO2 and 37° C. The culture medium was changed 24 hours after the start of the culture, and the medium containing the compound of Example was replaced to examine the action of the compound on cell proliferation. As the compound, a concentration of 0.01, 0.03, 0.1, 0.3, 1, 3, 10, or 30 μM was used. As a control, the cells were cultured in a medium containing no compound. The number of cells was evaluated by CCK-8 assay (Cell Counting Kit-8, DOJINDO LABORATORIES) 72 hours after the start of the compound treatment, and the compound concentration (IC50 value) giving a proliferation inhibition rate of 50% as compared with the control was calculated.
On the technique in general: Tetrazolium dyes change colour on reduction, which living cells bring about.

The test system of assay [4] is Mouse triple negative breast cancer cells 4T1 and mouse colorectal cancer cells CT26. Kind of assay: BNCT-enhancing effect using mouse allograft tumor model. Type of assay: in vivo, BALB/c mice. The settings on record: Group 1: 400 mg/kg L-[10B]BPA i.v., then compound 25 mg/kg i.v. after 1 and 1.5 hours; neutron rays 5 MW for 30 minutes. How it is done:
Mouse triple negative breast cancer cells 4T1 and mouse colorectal cancer cells CT26 were plate-cultured and then transplanted subcutaneously into the lower limbs of BALB/c mice. After 1 week, 400 mg/kg of L-[10B]BPA or a solvent as a control was intravenously administered through the tail vein. In Group 1, the compound of Example 1-45 was administered intravenously at a dose of 25 mg/kg after 1 hour and 1.5 hours from the administration of L-[10B]BPA. In Group 2, the solvent was administered instead of L-[10B]BPA, and after 1 hour and 1.5 hours, the compound of Example 1-45 obtained in the present invention was administered intravenously at a dose of 25 mg/kg. In Group 3, the solvent was administered intravenously instead of the compound of Example 1-45 after 1 hour and 1.5 hours from the administration of L-[10B]BPA. For Groups 1, 2, and 3, the lower limbs were irradiated with neutron rays under anesthesia after 2.5 hours from L-[10B]BPA administration or solvent administration as the control (5 MW for 30 minutes). The tumors were excised after 11 days from irradiation and the volumes thereof were compared.

The structures appear in SMILES notation.

T1 sequence (Q01650 whole entry): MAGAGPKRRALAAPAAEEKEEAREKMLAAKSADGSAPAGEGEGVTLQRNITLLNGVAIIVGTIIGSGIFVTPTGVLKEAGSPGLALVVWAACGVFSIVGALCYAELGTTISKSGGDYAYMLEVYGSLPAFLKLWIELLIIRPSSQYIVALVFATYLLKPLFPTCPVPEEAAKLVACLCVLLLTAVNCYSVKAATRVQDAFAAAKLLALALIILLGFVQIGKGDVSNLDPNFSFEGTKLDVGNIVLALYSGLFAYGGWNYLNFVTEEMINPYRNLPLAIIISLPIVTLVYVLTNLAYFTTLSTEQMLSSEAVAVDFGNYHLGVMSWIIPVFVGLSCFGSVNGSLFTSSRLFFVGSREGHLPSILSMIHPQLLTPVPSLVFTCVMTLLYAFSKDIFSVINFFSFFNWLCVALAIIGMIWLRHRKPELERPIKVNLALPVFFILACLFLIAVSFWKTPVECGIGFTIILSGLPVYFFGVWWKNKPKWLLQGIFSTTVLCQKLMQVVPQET
T1 sequence (P08195 102-630 partner): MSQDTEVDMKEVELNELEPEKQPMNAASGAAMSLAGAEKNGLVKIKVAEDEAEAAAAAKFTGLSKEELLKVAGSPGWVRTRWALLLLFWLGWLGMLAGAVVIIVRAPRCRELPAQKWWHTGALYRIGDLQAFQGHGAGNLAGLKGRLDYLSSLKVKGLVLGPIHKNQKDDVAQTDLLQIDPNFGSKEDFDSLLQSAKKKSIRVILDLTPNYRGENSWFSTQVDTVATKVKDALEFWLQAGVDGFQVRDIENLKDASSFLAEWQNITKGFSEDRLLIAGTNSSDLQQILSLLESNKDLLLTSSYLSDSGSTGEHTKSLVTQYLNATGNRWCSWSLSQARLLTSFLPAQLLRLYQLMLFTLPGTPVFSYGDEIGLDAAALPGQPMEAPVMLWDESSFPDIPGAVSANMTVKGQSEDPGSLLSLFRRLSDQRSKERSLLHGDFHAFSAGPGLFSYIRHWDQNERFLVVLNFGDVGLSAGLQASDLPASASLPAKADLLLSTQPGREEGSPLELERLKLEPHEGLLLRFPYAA

On to `Cl.NC1(C(=O)O)CCc2ccc(Oc3ccccc3-c3cccc(Cl)c3)cc2C1` (stereo not shown) [Example 1-33, 2-carboxy-7-((3′-chloro-[1,1′-biphenyl]-2-yl)oxy)-1,2,3,4-tetrahydronaphthalene-2-aminium chloride], for which the “Assay Data: degree of [14C]L-leucine uptake inhibition compared with BCH” value at human LAT1 [1] is “A”. For the same compound, the “sustained LAT1 inhibitory effect as compared with Example 1-1” value at human LAT1 [2] is “more remarkable effect”. The IC50 in assay [3] was no more than 900 nM.
As for `Cl.NC1(C(=O)O)CCc2ccc(Oc3ccccc3-c3cccc([N+](=O)[O-])c3)cc2C1` (stereo not shown) [Example 1-42, 2-carboxy-7-((3′-nitro-[1,1′-biphenyl]-2-yl)oxy)-1,2,3,4-tetrahydronaphthalene-2-aminium chloride], the “Assay Data: degree of [14C]L-leucine uptake inhibition compared with BCH” value on human LAT1 [1] is given as “A”. At human LAT1 [2], the “sustained LAT1 inhibitory effect as compared with Example 1-1” value is given as “more remarkable effect”. Besides, the IC50 in assay [3] was no more than 900 nM.
On to `Cl.NC1(C(=O)O)CCc2ccc(Oc3ccccc3-c3cccc4ccccc34)cc2C1` (stereo not shown) [Example 1-35, 2-Carboxy-7-(2-(naphthalen-1-yl)phenoxy)-1,2,3,4-tetrahydronaphthalene-2-aminium chloride], for which, at human LAT1 [1], the “Assay Data: degree of [14C]L-leucine uptake inhibition compared with BCH” value is “A”. Moreover, at human LAT1 [2], the “sustained LAT1 inhibitory effect as compared with Example 1-1” value was “more remarkable effect”. Further, the IC50 in assay [3] was no more than 900 nM.
The like results for `Cc1cccc(-c2ccccc2Oc2ccc3c(c2)CC(N)(C(=O)O)CC3)c1.Cl` (stereo not shown) [Example 1-43, 2-carboxy-7-((3′-methyl-[1,1′-biphenyl]-2-yl)oxy)-1,2,3,4-tetrahydronaphthalene-2-aminium chloride] were, in that order, “A”, “more remarkable effect” and no more than 900 nM.
Take `Cl.NC1(C(=O)O)CCc2ccc(Oc3ccccc3-c3cccc(Cl)c3F)cc2C1` (stereo not shown) [Example 1-54, 2-carboxy-7-((3′-Chloro-2′-fluoro-[1,1′-biphenyl]-2-yl)oxy)-1,2,3,4-tetrahydronaphthalene-2-aminium chloride]: at human LAT1 [1], the “Assay Data: degree of [14C]L-leucine uptake inhibition compared with BCH” value is given as “A” and the “LAT1 inhibitory effect, compounds singled out (in words)” value (shortened to “LAT1 inhibitory effect … (in words)”) was “particularly remarkable effects”. The “sustained LAT1 inhibitory effect as compared with Example 1-1” value at human LAT1 [2] is “more remarkable effect”. For the same compound, the IC50 in assay [3] was no more than 900 nM.
As to `Cl.NC1(C(=O)O)CCc2ccc(Oc3ccccc3-c3cccc(F)c3F)cc2C1` (stereo not shown) [Example 1-45, 2-Carboxy-7-((2′,3′-difluoro-[1,1′-biphenyl]-2-yl)oxy)-1,2,3,4-tetrahydronaphthalene-2-aminium chloride], the “antitumor effect by neutron irradiation (tumor volume 11 days after irradiation)” value in assay [4] is “large antitumor effect”. Besides, at human LAT1 [1], the “Assay Data: degree of [14C]L-leucine uptake inhibition compared with BCH” value was “A” and the “LAT1 inhibitory effect … (in words)” value is listed as “particularly remarkable effects”. The “sustained LAT1 inhibitory effect as compared with Example 1-1” value at human LAT1 [2] is recorded as “more remarkable effect”. Further, the IC50 in assay [3] was no more than 900 nM.
As for `Cc1cccc(-c2ccccc2Oc2ccc3c(c2)CC(N)(C(=O)O)CC3)c1Cl.Cl` (stereo not shown) [Example 1-57, 2-carboxy-7-((2′-Chloro-3′-methyl-[1,1′-biphenyl]-2-yl)oxy)-1,2,3,4-tetrahydronaphthalene-2-aminium chloride], on human LAT1 [1], the “Assay Data: degree of [14C]L-leucine uptake inhibition compared with BCH” value was “A” and the “LAT1 inhibitory effect … (in words)” value is on record as “particularly remarkable effects”. For the same compound, at human LAT1 [2], the “sustained LAT1 inhibitory effect as compared with Example 1-1” value is “more remarkable effect”. The IC50 in assay [3] was no more than 900 nM.
As to `Cl.NC1(C(=O)O)CCc2ccc(Oc3ccccc3-c3cccc(F)c3Cl)cc2C1` (stereo not shown) [Example 1-49, 2-Carboxy-7-((2′-Chloro-3′-fluoro-[1,1′-biphenyl]-2-yl)oxy)-1,2,3,4-tetrahydronaphthalene-2-aminium chloride], the “Assay Data: degree of [14C]L-leucine uptake inhibition compared with BCH” value at human LAT1 [1] is “A”. Moreover, the “sustained LAT1 inhibitory effect as compared with Example 1-1” value at human LAT1 [2] is “more remarkable effect”. In addition, the IC50 in assay [3] was no more than 900 nM.
As for `C=Cc1cccc(-c2ccccc2Oc2ccc3c(c2)CC(N)(C(=O)O)CC3)c1.Cl` (stereo not shown) [Example 1-62, 2-carboxy-7-((3′-vinyl-[1,1′-biphenyl]-2-yl)oxy)-1,2,3,4-tetrahydronaphthalene-2-aminium chloride], the “Assay Data: degree of [14C]L-leucine uptake inhibition compared with BCH” value at human LAT1 [1] is reported as “A”. In addition, on human LAT1 [2], the “sustained LAT1 inhibitory effect as compared with Example 1-1” value is “more remarkable effect”. For the same compound, in assay [3], the IC50 was no more than 900 nM.
Taken in the same sequence, the figures for `Cl.NC1(C(=O)O)CCc2ccc(Oc3ccccc3-c3ccc(F)cc3F)cc2C1` (stereo not shown) [Example 1-59, 2-Carboxy-7-((2′,4′-difluoro-[1,1′-biphenyl]-2-yl)oxy)-1,2,3,4-tetrahydronaphthalene-2-aminium chloride] were “A”, “more remarkable effect” and no more than 900 nM.
